Measurements from US11266645B2, “Methods for treating lymphoma” (Alexion Pharmaceuticals, Inc., priority 2018, dated 2022).
Values joined by “and” are separate entries in the source; they are usually repeats but may differ in a detail not shown here. Identical values can stand only once.

Assays:
[1] = tested on: patients with relapsed/refractory (r/r) B- and T-cell lymphoma; assay: Phase 2 study of cerdulatinib 30 mg BID in relapsed/refractory B- and T-cell lymphoma (Example 2); assay type: in vivo, human
Protocol: This study intended to confirm the safety and efficacy of cerdulatinib dosed 30 mg orally BID in patients with relapsed/refractory (r/r) B- and T-cell lymphoma. Dose reductions were permitted to a minimum of 15 mg BID. Response was assessed by Lugano Classification criteria.
Ninety nine patients enrolled (FL: 36, CLL/SLL: 28, PTCL: 18, marginal zone lymphoma: 8, aggressive: 5, Waldenstrom's macroglobulinemia: 4) (Table 4). Median age is 68 (42-93) and median # of prior therapies is 3 (1-13) (Table 5). 30 patients had prior BTK, PI3K or BCL-2 inhibitor therapy. The most common AEs of any grade are diarrhea (42%), fatigue (36%), and nausea (32%). Grade 3+ AEs occurring in ≥5% patients are neutropenia (18%), lipase increase (15%), pneumonia (12%), diarrhea (10%), and fatigue (7%). 5 patients have had Grade 5 infections considered related to study drug (3 of 5 in the CLL cohort). The target PK range has been achieved with an average SSCmin of ˜0.8 μM.

SU-DHL6 xenograft = SU-DHL6 xenograft in Nude mice; assay type: in vivo; conditions: tumors treated with cerdulatinib
Protocol: Xenograft studies in Nude mice were performed to evaluate cerdulatinib and venetoclax in combination. Nude mice were inoculated with […] SU-DHL6 cells subcutaneously. Once tumors reached 200 mm^3, the mice were randomized into 4 groups: vehicle, cerdulatinib alone, venetoclax alone, or a combination of cerdulatinib and venetoclax.

[2] = tested on: JAK2-dependent STAT5 phosphorylation; assay: Whole blood GM-CSF stimulation, STAT5 phosphorylation; assay type: cell-based, human; conditions: patient samples
Protocol: For PD assessments, serial blood samples were drawn into lithium-heparin vacutainer tubes on Day 1 prior to dosing and again at 0.5, 1, 2, and 4 hours post-dose; on Day 8 at pre-dose and 2 hours post-dose; and Day 28 prior to dosing. Multiple assays were performed using the Day 1 and Day 8 PD samples. SYK-mediated BCR signaling in whole blood was measured prior to and post-dosing by stimulating 100 μL whole blood with 2 μL of anti-human IgD (IgG fraction) and 10 μg anti-human IgM for 10 minutes at 37° C., measuring the induction of pSYK Y525/526, pAKT S473, and pERK Y204. […] With blood samples from the CLL patients only, tumor cell surface expression of CD5, CD69, CD86, and CXCR4 pre-dose on days 1 and 28 were monitored. […] For each assay, data were collected using an LSR II instrument (BD Bioscience, San Jose, Calif.) and analyzed using Flowjo software (Flowjo LLC, Ashland, Oreg.). […]
The potency and selectivity for target inhibition following oral dosing in patients using a variety of whole blood assays was measured.

[3] = tested on: U-CLL cells and M-CLL cells; assay: IL-4 treated U-CLL and M-CLL cells, immunoblotting; assay type: cell-based, human; conditions: 1 μM, 10 ng/mL IL-4, 24 hours
Protocol: U-CLL cells and M-CLL cells were treated with and without 10 ng/mL IL-4 for 24 hours in the presence or absence of 1 μM cerdulatinib. Immunoblotting was used to protein expression among the different treatments. […] FIGS. 10A-10G, 11A-11G and 12A-12G show the fold changes of the protein expression.

CCS(=O)(=O)N1CCN(c2ccc(Nc3ncc(C(N)=O)c(NC4CC4)n3)cc2)CC1 [cerdulatinib, 4-(cyclopropylamino)-2-((4-(4-(ethylsulfonyl)piperazin-1-yl)phenyl)amino)pyrimidine-5-carboxamide]
duration of durable PR ([1]; CLL patient relapsed on BTK inhibitor): ≥ 5 months | CR (%) ([1]; CLL/SLL): (4) % | CR, number of patients ([1]; CLL/SLL): 1 | PD (%) ([1]; CLL/SLL): (4) % | PD, number of patients ([1]; CLL/SLL): 1 | PR (%) ([1]; CLL/SLL): (57) % | PR, number of patients ([1]; CLL/SLL): 16 | ORR ([1]; CLL/SLL, N 28): 61% | CR, number of patients ([1]; DLBCL, tFL, and MCL): 0 | PD (%) ([1]; DLBCL, tFL, and MCL): 60% | PD, number of patients ([1]; DLBCL, tFL, and MCL): 3 | PR (%) ([1]; DLBCL, tFL, and MCL): 20% | PR, number of patients ([1]; DLBCL, tFL, and MCL): 1 | ORR ([1]; DLBCL, tFL, and MCL, N 5): 20% | CR (%) ([1]; FL): (10) % | CR, number of patients ([1]; FL): 3 | PD (%) ([1]; FL): (10) % | PD, number of patients ([1]; FL): 3 | PR (%) ([1]; FL): (39) % | PR, number of patients ([1]; FL): 12 | duration of durable PR ([1]; FL patient relapsed on BTK inhibitor): 12 months | ORR ([1]; FL, N 31): 49% | CR, number of patients ([1]; Other Indolent Lymphoma): 0 | PD (%) ([1]; Other Indolent Lymphoma): 33% | PD, number of patients ([1]; Other Indolent Lymphoma): 4 | PR (%) ([1]; Other Indolent Lymphoma): 42% | PR, number of patients ([1]; Other Indolent Lymphoma): 5 | ORR ([1]; Other Indolent Lymphoma, N 12): 42% | CR (%) ([1]; PTCL): 33% | PD (%) ([1]; PTCL): 33% | PD, number of patients ([1]; PTCL): 5 | PR (%) ([1]; PTCL): 13% | PR, number of patients ([1]; PTCL): 2 | study drug-related Serious Adverse Events (SAEs), number ([1]; PTCL (n=16), Grade 3 to 4): 4 | duration of durable PR ([1]; PTCL patient relapsed on tenalisib): ≥ 3 months | AEs of any grade: diarrhea ([1]; PTCL patients): 33% | AEs of any grade: fatigue ([1]; PTCL patients): 22% | AEs of any grade: lipase increase ([1]; PTCL patients): 17% | AEs of any grade: nausea ([1]; PTCL patients): 17% | Grade 3+ AEs: diarrhea, number of patients ([1]; PTCL patients): 3 | Grade 3+ AEs: lipase increase, number of patients ([1]; PTCL patients): 2 | Grade 3+ AEs: neutropenia, number of patients ([1]; PTCL patients): 4 | Grade 3+ AEs: pneumonia, number of patients ([1]; PTCL patients): 2 | deaths or discontinuations due to Treatment Emergent Adverse Events ([1]; PTCL patients (n=16)): no deaths or discontinuations | CR, number of patients ([1]; PTCL, 15 evaluable): 5 | ORR ([1]; PTCL, N 15, 30 mg BID): 47% | duration of durable PR ([1]; SLL patient relapsed on venetoclax): ≥ 18 months | duration of durable PR ([1]; WM patient relapsed on BTK inhibitor): ≥ 7 months | AEs of any grade: diarrhea ([1]; all 99 patients): 42% | AEs of any grade: fatigue ([1]; all 99 patients): 36% | AEs of any grade: nausea ([1]; all 99 patients): 32% | Grade 3+ AEs: diarrhea ([1]; all 99 patients): 10% | Grade 3+ AEs: fatigue ([1]; all 99 patients): 7% | Grade 3+ AEs: lipase increase ([1]; all 99 patients): 15% | Grade 3+ AEs: neutropenia ([1]; all 99 patients): 18% | Grade 3+ AEs: pneumonia ([1]; all 99 patients): 12% | patients with Grade 5 infections considered related to study drug ([1]; all 99 patients, 3 of 5 in the CLL cohort): 5 patients | time on treatment of PTCL patients with CR still on drug ([1]; first (two) responding PTCL patients): 11 months and 12 months and 8 months | response durations ([1]; first two PTCL patients achieving a response (both CRs)): 10 months and 6 months | Toxicities ≥ Grade 3: Asthenia/Fatigue ([1]; r/r PTCL, N = 16): 6.3% | Toxicities ≥ Grade 3: Diarrhea/Colitis ([1]; r/r PTCL, N = 16): 6.3% | Toxicities ≥ Grade 3: Infection ([1]; r/r PTCL, N = 16): 18.8% | Toxicities ≥ Grade 3: Neutropenia ([1]; r/r PTCL, N = 16): 6.3% | Bim expression in tumors (SU-DHL6 xenograft): increase | MCL-1 in tumors (SU-DHL6 xenograft): no change | inhibition of GM-CSF induced JAK2-dependent STAT5 phosphorylation [2]: sparing JAK2 | IL-4 induced increase of GABA1, FOXP1, SOCS1, and SOCS3 protein expression [3]: suppresses
